# In US20180237441A1, “Chemical Compounds” (GlaxoSmithKline Intellectual Property (No.2) Limited, priority 2015, published 2018):
# Biological target: T1, PERK (Homo sapiens, UniProt Q9NZJ5)
# T1 sequence (Q9NZJ5 30-1116): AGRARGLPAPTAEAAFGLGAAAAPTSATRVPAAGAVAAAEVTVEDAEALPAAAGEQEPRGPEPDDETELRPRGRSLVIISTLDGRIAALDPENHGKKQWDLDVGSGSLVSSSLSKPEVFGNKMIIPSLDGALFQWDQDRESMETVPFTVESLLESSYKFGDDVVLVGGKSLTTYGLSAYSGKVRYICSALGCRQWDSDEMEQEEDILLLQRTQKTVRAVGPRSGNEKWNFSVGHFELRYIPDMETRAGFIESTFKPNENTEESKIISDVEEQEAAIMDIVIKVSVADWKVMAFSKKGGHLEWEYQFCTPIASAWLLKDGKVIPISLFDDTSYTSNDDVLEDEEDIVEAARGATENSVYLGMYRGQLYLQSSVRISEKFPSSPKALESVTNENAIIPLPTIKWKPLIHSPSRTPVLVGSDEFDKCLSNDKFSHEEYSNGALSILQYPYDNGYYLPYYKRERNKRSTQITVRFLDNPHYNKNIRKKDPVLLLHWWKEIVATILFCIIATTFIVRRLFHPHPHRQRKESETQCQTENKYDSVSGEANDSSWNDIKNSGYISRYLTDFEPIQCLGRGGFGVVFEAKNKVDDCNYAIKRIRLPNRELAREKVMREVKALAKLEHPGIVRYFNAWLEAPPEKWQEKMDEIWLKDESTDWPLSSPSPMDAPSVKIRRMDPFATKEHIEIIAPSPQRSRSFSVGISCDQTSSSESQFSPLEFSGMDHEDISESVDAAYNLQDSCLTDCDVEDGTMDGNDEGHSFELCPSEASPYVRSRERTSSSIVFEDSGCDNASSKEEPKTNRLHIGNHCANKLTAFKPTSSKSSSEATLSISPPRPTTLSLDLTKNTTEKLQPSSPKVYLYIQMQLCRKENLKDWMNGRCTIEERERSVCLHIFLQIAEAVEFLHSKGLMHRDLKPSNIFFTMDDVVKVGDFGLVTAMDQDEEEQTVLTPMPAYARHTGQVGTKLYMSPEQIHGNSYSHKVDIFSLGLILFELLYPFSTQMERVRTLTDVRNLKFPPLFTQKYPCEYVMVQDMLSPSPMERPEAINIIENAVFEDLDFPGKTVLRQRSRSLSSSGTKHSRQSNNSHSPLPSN
# Assay: PERK enzyme assay (HTRF)
# Type: biochemical
# Conditions: 500 μM ATP; at least one experimental run; read-out: PERK Enzyme (500 μM ATP) IC50
# Procedure, shortened: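 HTRF read-out after 2 h of EDTA-quenched reactions, detecting phospho-eIF2α with Eu/APC reagents, gave IC50 values. Reaction: 0.75 nM GST-PERK, 30–60 min compound pre-incubation (max 1% DMSO), then 60 min with 40 nM biotin-eIF2α and 500 μM ATP, HEPES pH 7.5 buffer.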
row,IC50 [nM],SMILES
1,1980,"CN1C(=O)N(c2ccc(-c3cn(C)c4ncnc(N)c34)c(F)c2)CC1c1ccncc1 (stereo not shown) [Example 110, 1-(4-(4-amino-7-methyl-7H-pyrrolo[2,3-d]pyrimidin-5-yl)-3-fluorophenyl)-3-methyl-4-(pyridin-4-yl)imidazolidin-2-one]"

# Same assay, conditions: PERK Enzyme (500 μM ATP) IC50; at least one experimental run; read-out: PERK Activity
row,IC50 [nM],SMILES
1,< 100,"CCn1cc(-c2ccc(N3CC(c4ccc(F)cc4F)N(C)C3=O)cc2F)c2c(N)nc(C)nc21 (stereo not shown) [Example 109, 1-(4-(4-amino-7-ethyl-2-methyl-7H-pyrrolo[2,3-d]pyrimidin-5-yl)-3-fluorophenyl)-4-(2,4-difluorophenyl)-3-methylimidazolidin-2-one]"
2,> 1000,"CN1C(=O)N(c2ccc(-c3cn(C)c4ncnc(N)c34)c(F)c2)CC1c1ccncc1 (stereo not shown) [Example 110, 1-(4-(4-amino-7-methyl-7H-pyrrolo[2,3-d]pyrimidin-5-yl)-3-fluorophenyl)-3-methyl-4-(pyridin-4-yl)imidazolidin-2-one]"
3,100 to 1000,"Cc1nc(C2CN(c3ccc(-c4cn(C)c5ncnc(N)c45)c(F)c3)C(=O)N2C)ccc1F (stereo not shown) [Example 112, 1-(4-(4-amino-7-methyl-7H-pyrrolo[2,3-d]pyrimidin-5-yl)-3-fluorophenyl)-4-(5-fluoro-6-methylpyridin-2-yl)-3-methylimidazolidin-2-one]"
4,< 100,"CN1C(=O)N(c2ccc(-c3cn(C4CC4)c4ncnc(N)c34)c(F)c2)CC1c1ccc(F)c(F)c1 (stereo not shown) [Example 114, 1-(4-(4-amino-7-cyclopropyl-7H-pyrrolo[2,3-d]pyrimidin-5-yl)-3-fluorophenyl)-4-(3,4-difluorophenyl)-3-methylimidazolidin-2-one]"
5,< 100,"Cc1cc(N2CC(c3cc(F)cc(F)c3)N(C)C2=O)ccc1-c1cn(C)c2ncnc(N)c12 (stereo not shown) [Example 118, 1-(4-(4-amino-7-methyl-7H-pyrrolo[2,3-d]pyrimidin-5-yl)-3-methylphenyl)-4-(3,5-difluorophenyl)-3-methylimidazolidin-2-one]"
6,< 100,"Cc1cc(N2CC(c3cc(F)cc(F)c3)N(C)C2=O)ccc1-c1cn(C2CC2)c2ncnc(N)c12 (stereo not shown) [Example 119, 1-(4-(4-amino-7-cyclopropyl-7H-pyrrolo[2,3-d]pyrimidin-5-yl)-3-methylphenyl)-4-(3,5-difluorophenyl)-3-methylimidazolidin-2-one]"
7,< 100,"CCN1C(=O)N(c2ccc(-c3cn(C4CC4)c4ncnc(N)c34)c(F)c2)CC1c1cc(F)ccc1F (stereo not shown) [Example 120, 1-(4-(4-amino-7-cyclopropyl-7H-pyrrolo[2,3-d]pyrimidin-5-yl)-3-fluorophenyl)-4-(2,5-difluorophenyl)-3-ethylimidazolidin-2-one]"
8,< 100,"CN1C(=O)N(c2ccc(-c3cn(C)c4ncnc(N)c34)c(Cl)c2)CC1c1cc(F)cc(F)c1 (stereo not shown) [Example 121, 1-(4-(4-amino-7-methyl-7H-pyrrolo[2,3-d]pyrimidin-5-yl)-3-chlorophenyl)-4-(3,5-difluorophenyl)-3-methylimidazolidin-2-one]"
9,< 100,"CN1C(=O)N(c2ccc(-c3cn(C4CC4)c4ncnc(N)c34)c(Cl)c2)CC1c1cc(F)cc(F)c1 (stereo not shown) [Example 122, 1-(4-(4-amino-7-cyclopropyl-7H-pyrrolo[2,3-d]pyrimidin-5-yl)-3-chlorophenyl)-4-(3,5-difluorophenyl)-3-methylimidazolidin-2-one]"
10,< 100,"CN1C(=O)N(c2ccc(-c3cn(C)c4ncnc(N)c34)c(F)c2)CC1c1ccc(F)c(Cl)c1 (stereo not shown) [Example 131, 1-(4-(4-amino-7-methyl-7H-pyrrolo[2,3-d]pyrimidin-5-yl)-3-fluorophenyl)-4-(3-chloro-4-fluorophenyl)-3-methylimidazolidin-2-one]"
11,< 100,"CN1C(=O)N(c2ccc(-c3cn(C4CC4)c4ncnc(N)c34)c(F)c2)CC1c1ccc(F)c(Cl)c1 (stereo not shown) [Example 132, 1-(4-(4-amino-7-cyclopropyl-7H-pyrrolo[2,3-d]pyrimidin-5-yl)-3-fluorophenyl)-4-(3-chloro-4-fluorophenyl)-3-methylimidazolidin-2-one]"
12,< 100,"Cc1nc(N)c2c(-c3ccc(N4CC(c5ccc(Cl)nc5)N(C)C4=O)cc3F)cn(C)c2n1 (stereo not shown) [Example 135, 1-(4-(4-amino-2,7-dimethyl-7H-pyrrolo[2,3-d]pyrimidin-5-yl)-3-fluorophenyl)-4-(6-chloropyridin-3-yl)-3-methylimidazolidin-2-one]"
13,< 100,"CN1C(=O)N(c2ccc(-c3cn(C)c4ncnc(N)c34)c(F)c2)CC1C1CCCCCC1 (stereo not shown) [Example 138, 1-(4-(4-amino-7-methyl-7H-pyrrolo[2,3-d]pyrimidin-5-yl)-3-fluorophenyl)-4-cycloheptyl-3-methylimidazolidin-2-one]"
14,100 to 1000,"Cc1nc(N)c2c(-c3ccc(N4CC(c5c(F)ccc(F)c5F)N(C)C4=O)cc3F)cn(C)c2n1 (stereo not shown) [Example 139, 1-(4-(4-amino-2,7-dimethyl-7H-pyrrolo[2,3-d]pyrimidin-5-yl)-3-fluorophenyl)-3-methyl-4-(2,3,6-trifluorophenyl)imidazolidin-2-one]"
15,< 100,"CN1C(=O)N(c2ccc(-c3cn(C4CC4)c4ncnc(N)c34)c(F)c2)CC1c1cc(F)ccc1F (stereo not shown) [Example 144, 1-(4-(4-amino-7-cyclopropyl-7H-pyrrolo[2,3-d]pyrimidin-5-yl)-3-fluorophenyl)-4-(2,5-difluorophenyl)-3-methylimidazolidin-2-one]"
16,< 100,"CN1C(=O)N(c2ccc(-c3cn(C)c4ncnc(N)c34)c(F)c2)CC1c1ccc2c(c1)CCO2 (stereo not shown) [Example 147, 1-(4-(4-amino-7-methyl-7H-pyrrolo[2,3-d]pyrimidin-5-yl)-3-fluorophenyl)-4-(2,3-dihydrobenzofuran-5-yl)-3-methylimidazolidin-2-one]"
17,< 100,"CN1C(=O)N(c2ccc(-c3cn(C4CC4)c4ncnc(N)c34)c(F)c2)CC1c1cccc(Cl)c1 (stereo not shown) [Example 148, 1-(4-(4-amino-7-cyclopropyl-7H-pyrrolo[2,3-d]pyrimidin-5-yl)-3-fluorophenyl)-4-(3-chlorophenyl)-3-methylimidazolidin-2-one]"
18,< 100,"CN1C(=O)N(c2ccc(-c3cn(C4CC4)c4ncnc(N)c34)c(F)c2)CC1c1ccccc1 (stereo not shown) [Example 149, 1-(4-(4-amino-7-cyclopropyl-7H-pyrrolo[2,3-d]pyrimidin-5-yl)-3-fluorophenyl)-3-methyl-4-phenylimidazolidin-2-one]"
19,< 100,"CN1C(=O)N(c2ccc(-c3cn(C)c4ncnc(N)c34)c(F)c2)CC1c1cc(F)c(F)cc1F (stereo not shown) [Example 156, 1-(4-(4-amino-7-methyl-7H-pyrrolo[2,3-d]pyrimidin-5-yl)-3-fluorophenyl)-3-methyl-4-(2,4,5-trifluorophenyl)imidazolidin-2-one]"
20,< 100,"CN1C(=O)N(c2ccc(-c3cn(C4CC4)c4ncnc(N)c34)c(F)c2)CC1c1cc(F)c(F)cc1F (stereo not shown) [Example 157, 1-(4-(4-amino-7-cyclopropyl-7H-pyrrolo[2,3-d]pyrimidin-5-yl)-3-fluorophenyl)-3-methyl-4-(2,4,5-trifluorophenyl)imidazolidin-2-one]"
21,< 100,"CN1C(=O)N(c2ccc(-c3cn(C4CC4)c4ncnc(N)c34)c(F)c2)CC1c1ccc(F)cc1 (stereo not shown) [Example 162, 1-(4-(4-amino-7-cyclopropyl-7H-pyrrolo[2,3-d]pyrimidin-5-yl)-3-fluorophenyl)-4-(4-fluorophenyl)-3-methylimidazolidin-2-one]"
22,< 100,"CN1C(=O)N(c2ccc(-c3cn(C4CC4)c4ncnc(N)c34)c(F)c2)CC1c1ccc(Cl)cc1 (stereo not shown) [Example 167, 1-(4-(4-amino-7-cyclopropyl-7H-pyrrolo[2,3-d]pyrimidin-5-yl)-3-fluorophenyl)-4-(4-chlorophenyl)-3-methylimidazolidin-2-one]"
23,< 100,"CCN1C(=O)N(c2ccc(-c3cn(C4CC4)c4ncnc(N)c34)c(F)c2)CC1c1cc(F)cc(F)c1 (stereo not shown) [Example 170, 1-(4-(4-amino-7-cyclopropyl-7H-pyrrolo[2,3-d]pyrimidin-5-yl)-3-fluorophenyl)-4-(3,5-difluorophenyl)-3-ethylimidazolidin-2-one]"
24,< 100,"CN1C(=O)N(c2ccc(-c3cn(C4CC4)c4ncnc(N)c34)c(F)c2)CC1c1cc(F)cc(F)c1 (stereo not shown) [Example 176, 1-(4-(4-amino-7-cyclopropyl-7H-pvrrolo[2,3-d]pyrimidin-5-yl)-3-fluorophenyl)-4-(3,5-difluorophenyl)-3-methylimidazolidin-2-one]"
